The text below walks through data of patent publication US7750006B2, “Phthalazinone derivatives” (Kudos Pharmaceuticals Limited, priority 2000, dated 2010).

SMILES strings stand for the structures.

The assay has as its system HeLa cells. The assay can be described thus: Dose Enhancing Factor: cell growth inhibition with bleomycin, SRB assay. The note with it: test compound 25 μM, bleomycin 0.5 μg/ml. The class given is cell-based. The method, then:
The Dose Enhancing Factor (DEF) is a ratio of the enhancement of cell growth inhibition elicited by the test compound in the presence of bleomycin compared to bleomycin alone. […] Bleomycin was used at a concentration of 0.5 μg/ml. The DEF was calculated from the formula:
[formula] where GrowthTC is cell growth in presence of the test compound; GrowthControl is cell growth of control cells; Growthbleo is cell growth in presence of bleomycin; and Growth(bleo+TC) is cell growth in presence of bleomycin and the test compound.
2,000 HeLa cells were seeded into each well of a flat-bottomed 96-well microtiter plate in a volume of 100 μl and incubated for 6 hours at 37° C. […] Cells were allowed to grow for a further 1 hour before the addition of bleomycin to either untreated cells or test compound treated cells. Cells untreated with either bleomycin or test compound were used as a control. Cells treated with test compound alone were used to assess the growth inhibition by the test compound.
Cells were left for a further 16 hours before replacing the media and allowing the cells to grow for a further 72 hours at 37° C. The media was then removed and the cells fixed with 100 μl of ice cold 10% (w/v) trichloroacetic acid. The plates were incubated at 4° C. for 20 minutes and then washed four times with water. Each well of cells was then stained with 100 μl of 0.4% (w/v) SRB in 1% acetic acid for 20 minutes before washing four times with 1% acetic acid. Plates were then dried for 2 hours at room temperature. The dye from the stained cells was solubilized by the addition of 100 μl of 10 mM Tris Base into each well.
A general note: In SRB staining, fixed cells bind dye roughly in proportion to their protein.
Take `O=c1[nH]nc(CSc2ccc(Cl)cc2)c2ccccc12` [Compound 90]: the “DEF (Dose Enhancing Factor)” value worked out at 1.8.

Regarding `O=c1[nH]nc(CSc2ccccn2)c2ccccc12` [Compound 91], the “DEF (Dose Enhancing Factor)” value was determined as 1.4.

Turning to `Cn1ccnc1SCc1n[nH]c(=O)c2ccccc12` [Compound 92], the “DEF (Dose Enhancing Factor)” value is given as 1.5.

Regarding `COC(=O)CSCc1n[nH]c(=O)c2ccccc12` [Compound 93], the “DEF (Dose Enhancing Factor)” value came out at 1.3.

Consider `O=c1[nH]nc(Cc2ccc(Cl)cc2)c2ccccc12` [Compound 126], for which the “DEF (Dose Enhancing Factor)” value stood at 1.9.

For `O=c1[nH]nc(Cc2ccc(Br)cc2)c2ccccc12` [Compound 129], the “DEF (Dose Enhancing Factor)” value was 1.3.

For the molecule `O=c1[nH]nc(Cc2cccc3ccccc23)c2ccccc12` [Compound 131], the “DEF (Dose Enhancing Factor)” value is 1.3.

With `O=c1[nH]nc(Cc2ccc(F)cc2)c2ccccc12` [Compound 132], the “DEF (Dose Enhancing Factor)” value is reported as 2.3.

In the case of `COc1ccc(Cc2n[nH]c(=O)c3ccccc23)cc1` [Compound 138], the “DEF (Dose Enhancing Factor)” value was 1.3.

`Cc1ccc(Cc2n[nH]c(=O)c3ccccc23)cc1` [Compound 139]: the “DEF (Dose Enhancing Factor)” value amounted to 1.4.

Turning to `O=c1[nH]nc(Cc2ccccc2F)c2ccccc12` [Compound 141], the “DEF (Dose Enhancing Factor)” value was determined as 1.6.

As to `O=c1[nH]nc(Cc2ccccc2)c2ccccc12` [Compound 145], the “DEF (Dose Enhancing Factor)” value was determined as 1.8.

For the molecule `O=c1[nH]nc(Cc2ccc(I)cc2)c2ccccc12` [Compound 151], the “DEF (Dose Enhancing Factor)” value amounted to 1.9.

In the case of `Nc1cccc(Cc2n[nH]c(=O)c3ccccc23)c1` [Compound 160], the “DEF (Dose Enhancing Factor)” value is listed as 1.5.

For `Cc1ccccc1Cc1n[nH]c(=O)c2ccccc12` [Compound 163], the “DEF (Dose Enhancing Factor)” value was 1.3.

With `O=c1[nH]nc(Cc2ccc(O)cc2)c2ccccc12` [Compound 164], the “DEF (Dose Enhancing Factor)” value was 1.3.

Take `O=c1[nH]nc(Cc2cccc(O)c2)c2ccccc12` [Compound 165]: the “DEF (Dose Enhancing Factor)” value is reported as 1.3.

As to `CC(=O)Nc1ccc(Cc2n[nH]c(=O)c3ccccc23)cc1` [Compound 166], the “DEF (Dose Enhancing Factor)” value is on record as 1.4.

With `O=C(Nc1cccc(Cc2n[nH]c(=O)c3ccccc23)c1)c1cccs1` [Compound 169], the “DEF (Dose Enhancing Factor)” value is recorded as 1.5.

Take `O=C(Nc1cccc(Cc2n[nH]c(=O)c3ccccc23)c1)c1ccc(F)cc1` [Compound 170]: the “DEF (Dose Enhancing Factor)” value was 2.6.

Take `O=C(Nc1cccc(Cc2n[nH]c(=O)c3ccccc23)c1)c1ccccc1` [Compound 171]: the “DEF (Dose Enhancing Factor)” value was determined as 1.8.

Regarding `CC(=O)Nc1cccc(Cc2n[nH]c(=O)c3ccccc23)c1` [Compound 172], the “DEF (Dose Enhancing Factor)” value is on record as 1.4.

As to `O=c1[nH]nc(Cc2ccncc2)c2ccccc12` [Compound 177], the “DEF (Dose Enhancing Factor)” value is reported as 1.2.

`O=c1[nH]nc(Cc2cccnc2)c2ccccc12` [Compound 178]: the “DEF (Dose Enhancing Factor)” value came out at 1.9.

`CC(=O)Oc1cccc(Cc2n[nH]c(=O)c3ccccc23)c1` [Compound 179]: the “DEF (Dose Enhancing Factor)” value was 1.4.

Consider `O=c1[nH]nc(Cc2ccc3c(c2)OCO3)c2ccccc12` [Compound 180], for which the “DEF (Dose Enhancing Factor)” value is listed as 1.2.

For the molecule `O=c1[nH]nc(Cc2cccc(Cl)c2)c2ccccc12` [Compound 186], the “DEF (Dose Enhancing Factor)” value was 1.6.

Take `O=c1[nH]nc(Cc2cccc(C(F)(F)F)c2)c2ccccc12` [Compound 191]: the “DEF (Dose Enhancing Factor)” value is listed as 1.5.

Turning to `O=c1[nH]nc(Cc2cccc(F)c2)c2ccccc12` [Compound 192], the “DEF (Dose Enhancing Factor)” value came out at 1.4.

For `O=c1[nH]nc(Cc2cccc(Oc3ccccc3)c2)c2ccccc12` [Compound 193], the “DEF (Dose Enhancing Factor)” value was determined as 2.2.

On to `O=c1[nH]nc(Cc2cccc(OCc3ccccc3)c2)c2ccccc12` [Compound 194], for which the “DEF (Dose Enhancing Factor)” value is 1.6.

With `Nc1cc(Cc2n[nH]c(=O)c3ccccc23)ccc1N1CCSCC1` [Compound 198], the “DEF (Dose Enhancing Factor)” value amounted to 2.3.

Turning to `O=c1[nH]nc(Cc2ccc(N3CCCC3)c([N+](=O)[O-])c2)c2ccccc12` [Compound 204], the “DEF (Dose Enhancing Factor)” value came to 1.6.

On to `O=C(O)COCC(=O)Nc1cc(Cc2n[nH]c(=O)c3ccccc23)ccc1N1CCOCC1` [Compound 206], for which the “DEF (Dose Enhancing Factor)” value is on record as 1.2.

`O=c1[nH]nc(Cc2cccc(Br)c2)c2ccccc12` [Compound 211]: the “DEF (Dose Enhancing Factor)” value came to 1.4.

On to `O=C(Oc1cccc(Cc2n[nH]c(=O)c3ccccc23)c1)c1ccc(F)cc1` [Compound 212], for which the “DEF (Dose Enhancing Factor)” value is 2.3.

Turning to `CC(=O)Oc1ccc(Cc2n[nH]c(=O)c3ccccc23)cc1` [Compound 213], the “DEF (Dose Enhancing Factor)” value came to 1.3.

As to `O=C(Nc1ccccc1)Nc1cccc(Cc2n[nH]c(=O)c3ccccc23)c1` [Compound 215], the “DEF (Dose Enhancing Factor)” value is reported as 1.4.

Consider `O=C(Nc1ccc(F)cc1)Nc1cccc(Cc2n[nH]c(=O)c3ccccc23)c1` [Compound 216], for which the “DEF (Dose Enhancing Factor)” value worked out at 1.3.

Regarding `COc1cc(Cc2n[nH]c(=O)c3ccccc23)ccc1OCc1ccccc1` [Compound 222], the “DEF (Dose Enhancing Factor)” value is reported as 1.2.

Take `O=C(Nc1ccc(Cc2n[nH]c(=O)c3ccccc23)cc1)c1ccc(F)cc1` [Compound 227]: the “DEF (Dose Enhancing Factor)” value amounted to 2.6.

In the case of `O=c1[nH]nc(Cc2ccccc2F)c2ccccc12` [Compound 248], the “DEF (Dose Enhancing Factor)” value turned out to be 1.2.
